pIC50: −log10 of the molar value.
Molecular target: T1, αvβ3 (vitronectin receptor) (Homo sapiens, UniProt P05106+P06756)
T1 construct: Human placenta or human platelet αvβ3 (0.1-0.3 mg/mL) in buffer T; from tissue; host or cells: human placenta or human platelets
Test: Solid-Phase [3H]-SK&F-107260 Binding to αvβ3
Settings: read-out: concentration at which the compound inhibits vitronectin binding to SK&F 107260
Procedure: Solid-Phase [^3H]-SK&F-107260 Binding to αvβ3: Human placenta or human platelet αvβ3 (0.1-0.3 mg/mL) in buffer T (containing 2 mM CaCl2 and 1% octylglucoside) was diluted with buffer T containing 1 mM CaCl2, 1 mM MnCl2, 1 mM MgCl2 (buffer A) and 0.05% NaN3, and then immediately added to 96-well ELISA plates (Corning, New York, N.Y.) at 0.1 mL per well. 0.1-0.2 μg of αvβ3 was added per well. The plates were incubated overnight at 4° C. At the time of the experiment, the wells were washed once with buffer A and were incubated with 0.1 mL of 3.5% bovine serum albumin in the same buffer for 1 hr at room temperature. Following incubation the wells were aspirated completely and washed twice with 0.2 mL buffer A. […]
The plates were incubated for 1 hr at room temperature. […] The receptors were solubilized with 0.1 mL of 1% SDS and the bound [^3H]-SK&F-107260 was determined by liquid scintillation counting with the addition of 3 mL Ready Safe in a Beckman LS Liquid Scintillation Counter, with 40% efficiency. Nonspecific binding of [^3H]-SK&F-107260 was determined in the presence of 2 μM SK&F-107260 and was consistently less than 1% of total radioligand input. […] The Ki (dissociation constant of the antagonist) was calculated according to the equation: Ki=IC50/(1+L/Kd), where L and Kd were the concentration and the dissociation constant of [^3H]-SK&F-107260, respectively.

T1 sequence (P06756 31-889 limits assumed): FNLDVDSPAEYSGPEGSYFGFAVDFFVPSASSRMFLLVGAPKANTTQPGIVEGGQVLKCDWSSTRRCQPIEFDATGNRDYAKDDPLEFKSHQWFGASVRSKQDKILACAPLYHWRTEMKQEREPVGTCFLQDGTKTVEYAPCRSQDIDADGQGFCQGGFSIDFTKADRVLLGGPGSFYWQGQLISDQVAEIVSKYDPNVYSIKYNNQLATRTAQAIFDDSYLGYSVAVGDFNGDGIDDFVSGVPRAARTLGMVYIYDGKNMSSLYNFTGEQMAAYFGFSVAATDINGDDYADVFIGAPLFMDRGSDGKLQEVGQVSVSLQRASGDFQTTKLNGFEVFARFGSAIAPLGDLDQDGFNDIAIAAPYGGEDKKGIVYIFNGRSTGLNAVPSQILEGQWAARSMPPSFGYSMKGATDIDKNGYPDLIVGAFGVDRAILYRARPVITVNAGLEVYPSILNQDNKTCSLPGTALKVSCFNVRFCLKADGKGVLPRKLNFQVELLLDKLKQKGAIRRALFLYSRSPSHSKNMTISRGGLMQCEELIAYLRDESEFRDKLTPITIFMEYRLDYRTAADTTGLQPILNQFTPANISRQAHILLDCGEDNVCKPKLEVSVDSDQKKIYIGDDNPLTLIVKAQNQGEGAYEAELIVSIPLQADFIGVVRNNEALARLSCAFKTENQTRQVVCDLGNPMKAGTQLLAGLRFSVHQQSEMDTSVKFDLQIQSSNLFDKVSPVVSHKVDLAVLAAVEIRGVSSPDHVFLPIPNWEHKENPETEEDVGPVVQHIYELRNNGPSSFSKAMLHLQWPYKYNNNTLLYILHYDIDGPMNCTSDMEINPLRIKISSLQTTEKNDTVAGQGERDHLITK
T1 sequence (P06756 891-1048 partner limits assumed): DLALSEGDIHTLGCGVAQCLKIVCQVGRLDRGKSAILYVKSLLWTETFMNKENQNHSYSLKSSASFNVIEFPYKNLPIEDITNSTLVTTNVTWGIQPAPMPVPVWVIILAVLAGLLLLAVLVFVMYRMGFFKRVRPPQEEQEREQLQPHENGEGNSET
T1 sequence (P05106 27-788): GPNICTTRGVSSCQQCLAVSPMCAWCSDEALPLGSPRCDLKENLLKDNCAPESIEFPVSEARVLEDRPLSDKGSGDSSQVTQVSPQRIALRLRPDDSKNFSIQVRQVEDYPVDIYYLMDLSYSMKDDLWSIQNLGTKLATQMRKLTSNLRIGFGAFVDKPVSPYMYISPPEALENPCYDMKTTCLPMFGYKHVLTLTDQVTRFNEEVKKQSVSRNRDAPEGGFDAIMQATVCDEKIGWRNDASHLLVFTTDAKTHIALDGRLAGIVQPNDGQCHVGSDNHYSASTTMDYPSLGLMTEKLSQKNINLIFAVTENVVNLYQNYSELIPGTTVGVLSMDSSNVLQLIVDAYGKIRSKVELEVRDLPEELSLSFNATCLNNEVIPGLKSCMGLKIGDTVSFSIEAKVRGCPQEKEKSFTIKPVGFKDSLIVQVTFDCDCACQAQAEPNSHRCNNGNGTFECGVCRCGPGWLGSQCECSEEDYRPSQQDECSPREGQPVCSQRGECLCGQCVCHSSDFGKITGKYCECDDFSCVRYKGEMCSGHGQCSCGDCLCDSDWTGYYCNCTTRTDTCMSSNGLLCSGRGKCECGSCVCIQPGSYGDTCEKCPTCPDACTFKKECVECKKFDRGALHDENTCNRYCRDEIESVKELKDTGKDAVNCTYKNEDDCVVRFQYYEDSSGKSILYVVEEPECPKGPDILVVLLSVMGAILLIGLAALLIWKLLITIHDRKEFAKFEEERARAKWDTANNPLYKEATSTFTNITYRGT

- pIC50: ~8.52
Compound: O=C(O)C[C@@H]1Cc2ccc(OCCCNc3ccccn3)cc2CN(Cc2ccc(F)c(F)c2F)C1=O [Example 1, (S)-3-oxo-8-[3-(pyridin-2-ylamino)-1-propyloxy]-2-(2,3,4-trifluorobenzyl)-2,3,4,5-tetrahydro-1H-2-benzazepine-4-acetic acid]
